Measured values reported in BindingDB's records for doi:10.1016/j.bioorg.2016.10.001 (Jamia Millia Islamia (A Central University), 2016).
pIC50: −log10 of the molar value.

Each compound was assayed against DNA topoisomerase 2-alpha (Homo sapiens, UniProt P11388) (assay: Topoisomerase IIα Relaxation Assay). Conditions: pH 7.9.
Description: Relaxation of negatively supercoiled plasmid DNA by human topoisomerase IIα was assayed in 20 µL of reaction buffer (10 mM Tris-HCl, pH 7.9, 150 mM NaCl, 0.1% BSA, 0.1 mM spermidine, 5% glycerol and ATP) containing 250 ng of supercoiledpHOT1 plasmid DNA and 1 unit of enzyme. After incubation at 37 °C for 30 min, the reactions were terminated and analysed by agarose gel electrophoresis. The ethidium bromide-stained gel was photographed over UV light for densitometry analysis.

DNA topoisomerase 2-alpha, sequence (P11388 whole entry): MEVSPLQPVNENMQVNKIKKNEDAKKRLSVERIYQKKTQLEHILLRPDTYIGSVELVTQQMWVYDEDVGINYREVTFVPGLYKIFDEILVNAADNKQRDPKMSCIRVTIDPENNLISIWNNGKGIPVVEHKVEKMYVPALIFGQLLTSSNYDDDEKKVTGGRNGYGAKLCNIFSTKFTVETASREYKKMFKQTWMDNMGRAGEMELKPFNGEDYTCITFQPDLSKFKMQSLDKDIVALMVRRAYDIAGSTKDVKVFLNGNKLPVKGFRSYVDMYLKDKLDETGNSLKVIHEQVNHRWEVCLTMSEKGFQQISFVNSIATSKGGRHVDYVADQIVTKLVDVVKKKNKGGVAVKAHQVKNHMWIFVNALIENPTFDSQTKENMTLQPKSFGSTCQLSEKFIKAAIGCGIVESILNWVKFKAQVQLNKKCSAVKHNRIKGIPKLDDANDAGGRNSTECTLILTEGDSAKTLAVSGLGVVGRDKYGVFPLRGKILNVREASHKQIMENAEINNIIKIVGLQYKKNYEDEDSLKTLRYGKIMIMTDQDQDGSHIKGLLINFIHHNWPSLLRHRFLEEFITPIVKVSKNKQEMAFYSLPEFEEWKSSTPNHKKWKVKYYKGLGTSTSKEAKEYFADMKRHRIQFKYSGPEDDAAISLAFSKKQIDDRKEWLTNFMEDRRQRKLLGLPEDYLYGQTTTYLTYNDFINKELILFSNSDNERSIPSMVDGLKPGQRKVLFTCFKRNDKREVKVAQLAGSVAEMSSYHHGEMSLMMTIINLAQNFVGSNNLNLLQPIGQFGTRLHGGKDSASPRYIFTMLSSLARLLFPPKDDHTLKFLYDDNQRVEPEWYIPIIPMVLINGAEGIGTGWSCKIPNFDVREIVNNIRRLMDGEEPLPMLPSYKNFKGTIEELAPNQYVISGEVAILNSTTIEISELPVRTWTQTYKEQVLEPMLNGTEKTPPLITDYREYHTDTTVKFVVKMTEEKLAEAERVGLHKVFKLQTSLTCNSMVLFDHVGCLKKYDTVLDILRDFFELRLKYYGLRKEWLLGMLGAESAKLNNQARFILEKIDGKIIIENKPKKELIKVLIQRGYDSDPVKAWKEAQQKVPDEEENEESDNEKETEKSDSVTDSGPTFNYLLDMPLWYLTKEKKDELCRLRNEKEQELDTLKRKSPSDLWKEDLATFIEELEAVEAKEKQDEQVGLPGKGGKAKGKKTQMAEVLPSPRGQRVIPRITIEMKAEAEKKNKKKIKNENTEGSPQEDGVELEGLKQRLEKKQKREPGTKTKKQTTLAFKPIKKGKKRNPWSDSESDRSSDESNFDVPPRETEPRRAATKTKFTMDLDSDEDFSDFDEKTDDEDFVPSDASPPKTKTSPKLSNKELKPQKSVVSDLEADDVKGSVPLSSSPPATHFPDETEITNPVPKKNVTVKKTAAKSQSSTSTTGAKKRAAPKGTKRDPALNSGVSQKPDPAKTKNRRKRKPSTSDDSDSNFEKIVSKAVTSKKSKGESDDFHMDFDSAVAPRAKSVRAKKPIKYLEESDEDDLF

pIC50	SMILES
> 4.00	CCOC(=O)C1C(=O)C=C(c2cn(-c3ccccc3)nc2-c2cccc(Br)c2)CC1c1cccnc1 (centres undefined) [Ethyl 4-(3-(3-bromophenyl)-1-phenyl-1H-pyrazol-4-yl)-2-oxo-6-(pyridin-3-yl)cyclohex-3-enecarboxylate (5d)]
3.61	NC(=S)N1N=C(c2cccnc2)CC1c1cn(-c2ccccc2)nc1-c1ccccc1 (centres undefined) [5-(1,3-Diphenyl-1H-pyrazol-4-yl)-3-(pyridin-3-yl)-4,5-dihydropyrazole-1-carbothioamide (6a)]
3.34	NC(=S)N1N=C(c2cccnc2)CC1c1cn(-c2ccccc2)nc1-c1cccc(Br)c1 (centres undefined) [5-(3-(3-Bromophenyl)-1-phenyl-1H-pyrazol-4-yl)-3-(pyridin-3-yl)-4,5-dihydropyrazole-1-carbothioamide (6d)]
3.39	NC(=S)N1N=C(c2cccnc2)CC1c1cn(-c2ccccc2)nc1-c1ccc(Cl)cc1 (centres undefined) [5-(3-(4-Chlorophenyl)-1-phenyl-1H-pyrazol-4-yl)-3-(pyridin-3-yl)-4,5-dihydropyrazole-1-carbothioamide (6c)]
3.40	CCOC(=O)C1C(=O)C=C(c2cn(-c3ccccc3)nc2-c2ccc(C)cc2)CC1c1cccnc1 (centres undefined) [Ethyl 2-oxo-4-(1-phenyl-3-p-tolyl-1H-pyrazol-4-yl)-6-(pyridin-3-yl)cyclohex-3-enecarboxylate (5h)]
3.15	NC(=S)N1N=C(c2cccnc2)CC1c1cn(-c2ccccc2)nc1-c1ccc(Br)cc1 (centres undefined) [5-(3-(4-Bromophenyl)-1-phenyl-1H-pyrazol-4-yl)-3-(pyridin-3-yl)-4,5-dihydropyrazole-1-carbothioamide (6e)]
3.56	NC(=S)N1N=C(c2cccnc2)CC1c1cn(-c2ccccc2)nc1-c1ccc(F)cc1 (centres undefined) [5-(3-(4-Fluorophenyl)-1-phenyl-1H-pyrazol-4-yl)-3-(pyridin-3-yl)-4,5-dihydropyrazole-1-carbothioamide (6b)]
3.65	CCOC(=O)C1C(=O)C=C(c2cn(-c3ccccc3)nc2-c2ccccc2)CC1c1cccnc1 (centres undefined) [Ethyl 4-(1,3-diphenyl-1H-Pyrazol-4-yl)-2-oxo-6-(pyridin-3-yl)cyclohex-3-enecarboxylate (5a)]
> 4.00	CCOC(=O)C1C(=O)C=C(c2cn(-c3ccccc3)nc2-c2cccc([N+](=O)[O-])c2)CC1c1cccnc1 (centres undefined) [Ethyl 4-(3-(3-nitrophenyl)-1-phenyl-1H-pyrazol-4-yl)-2-oxo-6-(pyridin-3-yl)cyclohex-3-enecarboxylate (5f)]
> 4.00	CCOC(=O)C1C(=O)C=C(c2cn(-c3ccccc3)nc2-c2ccc(F)cc2)CC1c1cccnc1 (centres undefined) [Ethyl 4-(3-(4-fluorophenyl)-1-phenyl-1H-pyrazol-4-yl)-2-oxo-6-(pyridin-3-yl)cyclohex-3-enecarboxylate (5b)]
3.37	CCOC(=O)C1C(=O)C=C(c2cn(-c3ccccc3)nc2-c2ccc(OC)cc2)CC1c1cccnc1 (centres undefined) [Ethyl 4-(3-(4-methoxyphenyl)-1-phenyl-1H-pyrazol-4-yl)-2-oxo-6-(pyridin-3-yl)cyclohex-3-enecarboxylate (5i)]
> 4.00	CCOC(=O)C1C(=O)C=C(c2cn(-c3ccccc3)nc2-c2ccc(Cl)cc2)CC1c1cccnc1 (centres undefined) [Ethyl 4-(3-(4-chlorophenyl)-1-phenyl-1H-pyrazol-4-yl)-2-oxo-6-(pyridin-3-yl)cyclohex-3-enecarboxylate (5c)]
3.35	NC(=S)N1N=C(c2cccnc2)CC1c1cn(-c2ccccc2)nc1-c1cccc([N+](=O)[O-])c1 (centres undefined) [5-(3-(3-Nitrophenyl)-1-phenyl-1H-pyrazol-4-yl)-3-(pyridin-3-yl)-4,5-dihydropyrazole-1-carbothioamide (6f)]
3.59	CCOC(=O)C1C(=O)C=C(c2cn(-c3ccccc3)nc2-c2ccc([N+](=O)[O-])cc2)CC1c1cccnc1 (centres undefined) [Ethyl 4-(3-(4-nitrophenyl)-1-phenyl-1H-pyrazol-4-yl)-2-oxo-6-(pyridin-3-yl)cyclohex-3-enecarboxylate (5g)]
